Literature values, collected in patent US20130324497A1, “COMPOSITIONS AND METHODS FOR TREATING HEPATITIS B VIRUS INFECTION” (priority 2012, published 2013).
“Also recorded” adds a separate entry of the source. Read-outs that look alike come from different tables or passages of the source.

Key:
hepatitis B virus = conditions: for cumulative rate of resistance: 5 years
[1] = tested on: HBV mutants resistant to lamivudine
[2] = in vivo

Nc1ncnc2c1ncn2CCOCP(=O)(O)O [adefovir]
5-year resistance rate (hepatitis B virus; 5-year, monotherapy): 20-30%
susceptibility of lamivudine-resistant mutants [1]: retain susceptibility; also recorded: remain susceptible

CC(C)(C)C(=O)OCOP(=O)(COCCn1cnc2c(N)ncnc21)OCOC(=O)C(C)(C)C [adefovir dipivoxil, 9-[2-[[bis[(pivaloyloxy)methoxy]-phosphinyl]-methoxy]ethyl]adenine]
cumulative rate of resistance (hepatitis B virus; HBeAg negative patients): ~29%
cumulative rate of resistance (hepatitis B virus; HBeAg positive patients): about 20%
adefovir-associated nephrotoxicity, patients [2]: up to 47%
